# In patent publication US11771779B2, “Non-metallic magnetic resonance contrast agent” (HADASIT MEDICAL RESEARCH SERVICES & DEVELOPMENT LIMITED, priority 2018, dated 2023):
# Where two headings read alike, the source gives them in different places.
# Legend:
# [1] = in vivo; cited from earlier work
# [2] = T1 of hyperpolarized ^15N sites bound to labile protons upon dissolution in H2O and D2O, 5.8 T; assay type: physicochemical; conditions: for T1 upon dissolution in D2O / T1 upon dissolution in H2O: ≈37° C. (35-40° C.), 5.8 T, n=2; for T1 prolongation D2O versus H2O: deuteration of labile protons; for decrease in polarization during 1 min transfer and administration: entire process at physiological temperatures
# Description: Spin polarization and fast dissolution were carried out in a dDNP commercial device (HyperSense, Oxford Instruments Molecular Biotools, Oxford, UK). The sample was maintained at 1.4-1.5 K and was irradiated at 94.110 GHz. ^15N NMR spectroscopy was performed in a 5.8 T NMR spectrometer (RS2D, Mundolsheim, France), using a 10-mm broadband NMR probe. The temperature in the NMR tube was continuously monitored using an NMR compatible temperature probe (Osensa, Burnaby, BC, Canada). Spectral processing and calculation of integrated intensities was performed using MNova (Mestrelab Research, Santiago de Compostela, Spain). Liquid state polarization was determined by comparing the integrated intensity of the first hyperpolarized spectrum to the integrated intensity of a standard containing a known concentration of ^15N label, where the thermal equilibrium polarization is given as PolTE=tanh(ℏγB/2kbT) Determination of the T1 of the hyperpolarized sites was performed by curve fitting of the signal decay to the following equation: S(t)=S0·e^−t/T^1·(cos θ)^t/TR in which TR, the time between excitations, and θ, the nutation angle of excitation, are known. For measurements of T1 in whole blood, 5.5 ml of whole blood in heparinized tube was obtained from a healthy volunteer and maintained at 20° C. for 2.5 h. Ten minutes before dissolution of the hyperpolarized urea sample, the blood was loaded into a NMR tube in the spectrometer and maintained at 36° C. The hyperpolarized urea sample was dissolved into a container outside the magnet and was injected in 0.5-1.0 mL aliquots followed by ≈2 ml of air through a tube at the bottom of the sample, to ensure no sample remained in the inlet line and complete mixing of the freshly injected solution with the blood. The sample was visually inspected at the end of the experiment to confirm that the hyperpolarized solution was well mixed with the blood and that there was no separation of the blood. Curve fitting was performed using Matlab (Mathworks, Natick, Mass., USA). Statistical analysis was performed using Microsoft Excel (Microsoft, Ra'anana, Israel).
# [3] = Liquid state polarization and buildup of [^15N2]urea by dDNP; assay type: physicochemical
# Description: The temperature in the NMR tube was continuously monitored using an NMR compatible temperature probe (Osensa, Burnaby, BC, Canada). […] Curve fitting was performed using Matlab (Mathworks, Natick, Mass., USA).
# [4] = Temperature dependence of T1 of hyperpolarized [^15N2]urea in D2O; assay type: physicochemical; set-up: T1 Average ± SD: unit not given here
# Description: The experiment shown in FIG. 9B clarified the importance of maximizing the T1 of [^15N2]urea for optimal storage of the polarization, in order to expand the time scale in which the hyperpolarized signal from a single dose can be observed in vivo. As for storage there are no limitation to physiological temperatures, the effect of temperature on the T1 of [^15N2]urea was measured. Given the impressive signal afforded by the dDNP process and its long lifetime, it was possible to measure the T1 of the ^15N sites of urea for a range of temperatures with a single sample that was slowly heated or cooled while the temperature was continuously monitored with an NMR compatible temperature probe (FIG. 10A, top). In order to determine the temperature dependent T1, the decay data were retrospectively binned to consecutive 10° C. segments (FIG. 10A, alternating shading indicates different 10° C. segments) and the T for each temperature segment was determined (FIG. 10B, inset).
# The hyperpolarized decay acquisitions were carried out with 3-10° excitation angle and 5-20 s repetition time. There was no significant difference in the T determined with different acquisition parameters.
# Individual measurements are shown. Each column represents a single hyperpolarized decay, obtained with the same flip angle and repetition time. Using an online measurement of the temperature inside the NMR tube, we could differentiate different temperature regimes within a single decay and thus assess the effect of temperature on T1. T1 values were determined by fitting the equation describing the mono-exponential decay of a hyperpolarized signal: S(t)=S0·e−t/T1·(cos θ)t/TR.
# The angle of excitation was determined by calibration of the 90o excitation on a ^15N labeled standard. The error for each individual measurement represents the 95% confidence interval of the curve fit.
# The temperature gradient was formed by adding a solution at a temperature different than the spectrometer temperature so that throughout the acquisition the sample slowly cooled/warmed to the spectrometer temperature. […] Variability in the determined T1 values may be due to slight variations in the effective angle of excitation and/or the amount of trace protons present in different samples; indeed when different temperature segments are compared within the same hyperpolarized decay, (i.e. for the same sample on the same day), the dependence of T1 on the temperature can be even more clearly seen. The average and standard deviation of all measurements in the same temperature regime are shown in the column on the right.
# [5] = remark: listed apart in the source
# Source text: The dissolution process is detailed in the results section. […] Unless otherwise stated, the dissolved hyperpolarized solution was directly injected to a screw cup 10 mm NMR tube in a 5.8T NMR spectrometer via a PTFE line of about 2.4 m length with 3 s of He(g) chase. This line was wrapped with a heating tape (MRC, Holon, Israel) that enabled control over the temperature of the dissolution medium arriving to the NMR tube directly or to a collection tube in the fringe field of the spectrometer. ^15N-Nuclear Magnetic Resonance (NMR) spectra were continuously recorded immediately at the start of the dissolution process. […] In the experiments in body fluids and in experiments in which the hyperpolarized solution was first cooled to temperatures below room temperature, the dissolution media was first collected in a conical tube placed in the spectrometer's fringe field, and then was injected by syringe via a PEEK line to the NMR tube that was placed in the magnet.
# For heating this hyperpolarized solution prior to arrival to the NMR tube, the PTFE line leading the hyperpolarized solution out of the spin polarization device was wrapped with a heating tape connected to a temperature controller (MRC, Holon, Israel). In this way, hyperpolarized solutions at temperatures higher than 26° C. could be obtained. For cooling the hyperpolarized solution, the heating tape was not turned on and the dissolution medium was mixed with 0 to 4 mL of D2O at 2° C. in a collection tube placed in ice-water bath in the fringe field of the magnet, prior to injection.
# ^15N-NMR spectroscopy was performed in a 5.8T NMR spectrometer (RS2D, Mundolsheim, France), using a 10 mm broad-band NMR probe. The chemical shift scale of the spectra presented herein was calibrated based on a separate measurement of a [^15N2]urea standard sample (4M in H2O:D2O 80:20), carried out prior to hyperpolarized ^15N acquisitions, calibrating the [^15N2]urea signal to −306 ppm (relative to nitromethane). For enhancement factor calculation, the spectra were collected with a high flip angle of […] and a repetition time of 2 s. For T1 calculation, the spectra were acquired with a low flip angle of […] and a longer repetition time of 5-10 s.
# The temperature in the NMR tube was continuously monitored using an NMR compatible temperature probe (Osensa, Burnaby, BC, Canada).
# Determination of the T1 of the hyperpolarized sites was performed by curve fitting of the signal decay to the following equation: S(t)=S0·e^−t/T^1·(cos θ)^t/TR, in which TR, the time between excitations, and θ, the nutation angle of excitation, are known. Curve fitting was performed using Matlab (Mathworks, Natick, Mass., USA).
smiles,measurement,setting,value
"O=NO [Nitrite (NO2), Nitrite]",half-life in the circulation,[1],0.333 h
[15NH2]C([15NH2])=O [[^15N2]urea],T1 in whole blood,2nd injection,12.0 ± 0.2 s
same,T1 in whole blood,3rd injection,12.9 ± 0.6 s
same,T1 in whole blood,37° C.,10 s
same,T1 in whole human blood,"first decay curve, D2O:whole blood 1:10, 95% CI",9.8 ± 0.2 s
same,T1 upon dissolution in D2O,[2],200 ± 20 s
same,T1 upon dissolution in H2O,[2],33 ± 5 s
same,T1 prolongation D2O versus H2O,[2],6.1 fold
same,decrease in polarization during 1 min transfer and administration,[2],≈ 25%
same,polarization buildup time,[3]; R^2=0.93,2.3 ± 1.2 h
same,maximum polarization,"[3]; liquid state polarization after varying irradiation times, 1.4-1.5 K",5.1±1.6%
same,T1 Average ± SD,"[4]; 15-25° C., n = 3",146 ± 23
same,T1 Average ± SD,"[4]; 25-35° C., n = 4",191 ± 33
same,T1 Average ± SD,"[4]; 35-45° C., n = 6",226 ± 38
same,T1 Average ± SD,"[4]; 45-55° C., n = 4",308 ± 34
same,T1 Average ± SD,"[4]; 55-65° C., n = 4",351 ± 40
same,T1 Average ± SD,"[4]; 65-75° C., n = 3",382 ± 48
same,T1,"[4]; #1, θ 10°, TR 5 s, 35-45° C.",228 ± 4
same,T1,"[4]; #2, θ 3°, TR 10 s, 15-25° C., ± 95% CI of fit",155 ± 3
same,T1,"[4]; #2, θ 3°, TR 10 s, 25-35° C.",196 ± 8
same,T1,"[4]; #3, θ 10°, TR 10 s, 25-35° C.",209 ± 2
same,T1,"[4]; #3, θ 10°, TR 10 s, 35-45° C.",266 ± 4
same,T1,"[4]; #3, θ 10°, TR 10 s, 45-55° C.",355 ± 8
same,T1,"[4]; #3, θ 10°, TR 10 s, 55-65° C.",382 ± 17
same,T1,"[4]; #4, θ 10°, TR 10 s, 25-35° C.",216 ± 2
same,T1,"[4]; #4, θ 10°, TR 10 s, 35-45° C.",272 ± 3
same,T1,"[4]; #4, θ 10°, TR 10 s, 45-55° C.",340 ± 5
same,T1,"[4]; #4, θ 10°, TR 10 s, 55-65° C.",386 ± 12
same,T1,"[4]; #4, θ 10°, TR 10 s, 65-75° C.",416 ± 23
same,T1,"[4]; #5, θ 10°, TR 10 s, 35-45° C.",216 ± 5
same,T1,"[4]; #5, θ 10°, TR 10 s, 45-55° C.",273 ± 4
same,T1,"[4]; #5, θ 10°, TR 10 s, 55-65° C.",305 ± 14
same,T1,"[4]; #5, θ 10°, TR 10 s, 65-75° C.",327 ± 16
same,T1,"[4]; #6, θ 10°, TR 10 s, 15-25° C.",112 ± 6
same,T1,"[4]; #6, θ 10°, TR 10 s, 25-35° C.",143 ± 1
same,T1,"[4]; #7, θ 10°, TR 15 s, 35-45° C.",198 ± 2
same,T1,"[4]; #8, θ 10°, TR 15 s, 35-45° C.",176 ± 5
same,T1,"[4]; #9, θ 5°, TR 20 s, 45-55° C.",284 ± 6
same,T1,"[4]; #9, θ 5°, TR 20 s, 55-65° C.",332 ± 11
same,T1,"[4]; #9, θ 5°, TR 20 s, 65-75° C.",404 ± 41
same,T1,"[4]; #10, θ 10°, TR 10 s, 15-25° C.",163 ± 20
same,T1,"[4]; D2O, 65-75° C. (above 65° C.)",more than 6 min
same,T1,"[4]; deuterated water, physiological temperatures",> 3 min
"O=[15N][O-].[Na+] [[^15N]nitrite, sodium [^15N]nitrite]",T1,"[5]; D2O, n=2",14.8 ± 0.6 s
same,T1,"[5]; H2O, n=2",13.6 ± 0.5 s
same,T1,"[5]; same sample, D2O (co-polarized nitrate and nitrite)",14 s
O=C1CCC(=O)[15NH]1 [[^15N]succinimide],T1 upon dissolution in D2O,[2],215 ± 2 s
same,T1 upon dissolution in H2O,[2],45 ± 3 s
same,T1 prolongation D2O versus H2O,[2],4.8 fold
"Cl.N[C@@H](CCCNC(=[15NH])[15NH2])C(=O)O [[guanido-^15N2]arginine, L-[guanido-^15N2]arginine:HCl]",T1 upon dissolution in D2O,[2],44 ± 1 s
same,T1 upon dissolution in H2O,[2],6.6 ± 0.3 s
same,T1 prolongation D2O versus H2O,[2],6.7 fold
"N[13C](N)=O [carbon-13 labeled urea, reference compound]",decrease in polarization during 1 min transfer and administration,[2],≈ 80%
"O=[N+]([O-])O [nitrate (NO3—), nitrate]",half-life in the circulation,[1],5 to 6 h
